Assay results taken from patent publication EP4603105A1, “PHARMACEUTICAL COMPOSITION CONTAINING CYCLIC COMPOUND HAVING SELECTIVE KRAS INHIBITORY EFFECT AGAINST HRAS AND NRAS” (CHUGAI SEIYAKU KABUSHIKI KAISHA, priority 2022, dated 2024).
pIC50, pKd: −log10 of the molar value. Where a SMILES comes first, the peptide text is derived from it. Bridges are numbered along the chain shown (N, C = ends). [ ]: non-standard residue; d: D form. The star is where a group is joined. hPhe(3-Cl-4-CF3) = N[C@@H](CCc1ccc(C(F)(F)F)c(Cl)c1)C(=O)O; NPrPhe(4-CF3) = CCCN[C@@H](Cc1ccc(C(F)(F)F)cc1)C(=O)O; NMeGly(cPent) = CN[C@H](C(=O)O)C1CCCC1; Hyp = O=C(O)[C@@H]1C[C@@H](O)CN1; NMeD = CN[C@@H](CC(=O)O)C(=O)O; NMeL = CN[C@@H](CC(C)C)C(=O)O; Morpholide = C1CN(*)CCO1; Ac5c = NC1(C(=O)O)CCCC1; Aze = O=C(O)[C@@H]1CCN1; Sar = CNCC(=O)O

Key:
HRAS wild-type protein = HRAS wild-type protein (Homo sapiens, UniProt P01112); experiment: Binding to HRAS by surface plasmon resonance (SPR), KD and KD ratio to KRAS
Chain of HRAS wild-type protein (P01112 whole entry): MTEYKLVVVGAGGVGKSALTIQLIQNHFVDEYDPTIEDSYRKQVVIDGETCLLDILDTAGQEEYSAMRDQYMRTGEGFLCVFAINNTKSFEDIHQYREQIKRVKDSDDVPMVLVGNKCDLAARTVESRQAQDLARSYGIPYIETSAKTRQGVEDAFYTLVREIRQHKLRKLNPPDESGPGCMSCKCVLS
Summary of the method: (§1)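 GDP-loaded biotinylated Avi-tag RAS proteins (E. coli-expressed) captured on a Biotin CAPture chip at ~100–300 RU; single-cycle kinetics at 30°C, 100 µL/min, 75 s injections of rising compound concentrations. HBS pH 7.4 running buffer with 1 mM DTT, 10 mM MgCl2, 10 µM GDP, 4% DMSO. KD from 1:1 binding fit.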

[1] = molecular target: GDP-bound NRAS wild-type protein (Homo sapiens, UniProt P01111); experiment: Binding to NRAS by surface plasmon resonance (SPR), KD and KD ratio to KRAS
Chain of GDP-bound NRAS wild-type protein (P01111 whole entry): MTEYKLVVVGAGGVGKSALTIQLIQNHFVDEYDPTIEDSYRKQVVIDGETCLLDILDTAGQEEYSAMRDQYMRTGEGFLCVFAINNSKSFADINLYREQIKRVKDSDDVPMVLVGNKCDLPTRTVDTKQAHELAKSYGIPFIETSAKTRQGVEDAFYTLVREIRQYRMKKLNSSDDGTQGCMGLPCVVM
Summary of the method: as §1

[2] = system: human lung cancer strain NCI-H441; type: cell-based
Summary of the method: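 Readout: […] after the ATP-based reagent. Compound: serial dilutions in dimethyl sulfoxide.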

[3] = molecular target: GDP-bound KRAS wild-type protein (Homo sapiens, UniProt P01116); experiment: Binding to KRAS by surface plasmon resonance (SPR), dissociation constant KD
Chain of GDP-bound KRAS wild-type protein (P01116 1-188 isoform P01116-2): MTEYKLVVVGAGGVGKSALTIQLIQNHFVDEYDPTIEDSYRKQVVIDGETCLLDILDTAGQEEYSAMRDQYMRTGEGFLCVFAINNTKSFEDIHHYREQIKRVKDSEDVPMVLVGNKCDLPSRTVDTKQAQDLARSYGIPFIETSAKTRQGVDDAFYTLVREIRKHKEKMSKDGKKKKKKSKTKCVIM
Summary of the method: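 Single-cycle kinetics on GDP-loaded biotin-Avi RAS captured to ~100–300 RU; 75 s ascending injections, 100 µL/min, 30°C. HBS pH 7.4 + 10 mM MgCl2/10 µM GDP/4% DMSO. 1:1 fit, KD.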

[4] = ratio of the KD value with respect to HRAS wild-type protein to the KD value with respect to KRAS
[5] = ratio of the KD value with respect to GDP-bound NRAS wild-type protein to the KD value with respect to KRAS
[6] = Single Cycle Kinetics, 1:1 binding model
[7] = ratio of KD for HRAS wild-type protein to KD for KRAS
[8] = ratio of KD for GDP-bound NRAS wild-type protein to KD for KRAS

SMILES	pIC50 [2]	pKd [3, 6]	pKd ([3]; Single Cycle Kinetics)	pKd ([3]; 1:1 binding model)	HRAS /KRAS (HRAS wild-type protein; [4])	NRAS /KRAS [1, 5]	HRAS /KRAS (HRAS wild-type protein; [7])	NRAS /KRAS [1, 8]	HRAS /KRAS (HRAS wild-type protein; ratio of KD value for HRAS wild-type protein to KD value for KRAS (SPR))	NRAS /KRAS ([1]; ratio of KD value for GDP-bound NRAS wild-type protein to KD value for KRAS (SPR))
CC[C@H](C)[C@@H]1NC(=O)[C@H](Cc2cccc(Cl)c2)N(C)C(=O)C[C@@H](C(=O)N2CCOCC2)N(C)C(=O)[C@H](C2CCCC2)N(C)C(=O)C2(CCCC2)NC(=O)[C@@H]2CCCN2C(=O)[C@H](CCc2ccc(C(F)(F)F)c(Cl)c2)NC(=O)CN(C)C(=O)[C@H](Cc2ccc(F)cc2)N2CCCCC[C@@H](C2=O)N(C)C(=O)CN(C)C1=O [PP0963]	7.00	–	9.11	–	–	–	B (a compound having 3 or more and less than 10 is denoted as B)	B (a compound having 3 or more and less than 10 is denoted as B)	–	–
CCO[C@@H]1C[C@H]2C(=O)NC3(CCC3)C(=O)N(C)[C@@H](C3CCCC3)C(=O)N(CCC3CCC3)[C@H](C(=O)N3CCOCC3)CC(=O)N(C)[C@@H](CC(C)C)C(=O)N[C@@H]([C@@H](C)CC)C(=O)N(C)CC(=O)N(C)[C@H]3CCCCCN(C3=O)[C@@H](Cc3ccc(C(F)(F)F)cc3)C(=O)N(C)CC(=O)N[C@@H](CCc3cc(F)c(C(F)(F)F)c(F)c3)C(=O)N2C1 [PP0640]	< 6.22	7.70	–	–	B (a compound having 3 or more and less than 10 is denoted as B)	B (a compound having 3 or more and less than 10 is denoted as B)	–	–	–	–
CCO[C@@H]1C[C@H]2C(=O)NC3(CCC3)C(=O)N(C)[C@@H](C(CC)CC)C(=O)N(C)[C@H](C(=O)N(C)C)CC(=O)N(C)[C@@H](CC3CC3)C(=O)N[C@@H]([C@@H](C)CC)C(=O)N(C)CC(=O)N(C)[C@H]3C/C=C\CCN(C3=O)[C@@H](Cc3ccc(F)cc3C)C(=O)N(C)CC(=O)N[C@@H](CCc3cc(F)c(C(F)(F)F)c(F)c3)C(=O)N2C1 [PP1514]	7.14	9.19	–	–	–	–	–	–	A (a compound having 10 or more and less than 20 is denoted as A)	A (a compound having 10 or more and less than 20 is denoted as A)
CCO[C@@H]1C[C@H]2C(=O)NC3(CC(C)(C)C3)C(=O)N(C)[C@@H](C3CCCC3)C(=O)N(C)[C@H](C(=O)N(C)CC)CC(=O)N(C)[C@H]3C/C=C/c4ccc(cc4)C[C@@H](C(=O)N(C)CC(=O)N[C@@H](CCc4ccc(Cl)c(Cl)c4)C(=O)N2C1)N1CC/C=C\C[C@@H](C1=O)N(C)C(=O)CN(C)C(=O)[C@H]([C@@H](C)CC)NC3=O [PP3056]	6.82	–	–	8.85	–	–	A (a compound having 10 or more and less than 20 is denoted as A)	A (a compound having 10 or more and less than 20 is denoted as A)	–	–

Stronger by pIC50 [2], values ahead:

pIC50 [2]	pKd [3, 6]	pKd ([3]; Single Cycle Kinetics)	pKd ([3]; 1:1 binding model)	SMILES	HRAS /KRAS (HRAS wild-type protein; [4])	NRAS /KRAS [1, 5]	HRAS /KRAS (HRAS wild-type protein; [7])	NRAS /KRAS [1, 8]	HRAS /KRAS (HRAS wild-type protein; ratio of KD value for HRAS wild-type protein to KD value for KRAS (SPR))	NRAS /KRAS ([1]; ratio of KD value for GDP-bound NRAS wild-type protein to KD value for KRAS (SPR))
7.87	9.59	–	–	CCC[C@H]1C(=O)N[C@@H]([C@@H](C)CC)C(=O)N(C)CC(=O)N(C)[C@H]2C/C=C\CCN(C2=O)[C@@H](Cc2ccc(C)cc2)C(=O)N(C)CC(=O)N[C@@H](CCc2cc(F)c(C(F)(F)F)c(F)c2)C(=O)N2C[C@H](OCC)C[C@H]2C(=O)NC2(CC(C)(C)C2)C(=O)N(C)[C@@H](C(CC)CC)C(=O)N(C)[C@H](C(=O)N(C)C)CC(=O)N1C [PP2064]	A (a compound having 10 or more and less than 20 is denoted as A)	A (a compound having 10 or more and less than 20 is denoted as A)	–	–	–	–
7.93	–	–	9.54	CCCN1C(=O)CN(C)C(=O)[C@@H]2CCN2C(=O)[C@H]([C@@H](C)CC)NC(=O)[C@H](CC(C)C)N(C)C(=O)C[C@@H](C(=O)N2CCOCC2)N(C)C(=O)[C@H](C2CCCC2)N(C)C(=O)C2(CCCC2)NC(=O)[C@@H]2C[C@@H](OC)CN2C(=O)[C@H](CCc2ccc(C(F)(F)F)c(Cl)c2)NC(=O)CN(C)C(=O)[C@@H]1Cc1ccc(C(F)(F)F)cc1 [PP0309] ([NMeL]I[Aze][Sar][NPrPhe(4-CF3)][Sar][hPhe(3-Cl-4-CF3)][Hyp](Me)[Ac5c][NMeGly(cPent)][NMeD]-Morpholide; lactam N-11)	–	–	B (a compound having 3 or more and less than 10 is denoted as B)	B (a compound having 3 or more and less than 10 is denoted as B)	–	–
7.82	9.89	–	–	CCCOC[C@H]1C(=O)N[C@@H]([C@@H](C)CC)C(=O)N(C)CC(=O)N(C)[C@H]2C/C=C\CCN(C2=O)[C@@H](Cc2ccc(C(F)(F)F)cc2)C(=O)N(C)CC(=O)N[C@@H](CCc2cc(F)c(C(F)(F)F)c(F)c2)C(=O)N2C[C@@H](C)C[C@H]2C(=O)NC2(CCC2)C(=O)N(C)[C@@H](C2CCCC2)C(=O)N(C)[C@H](C(=O)N(C)CCC)CC(=O)N1C [PP2008]	A (a compound having 10 or more and less than 20 is denoted as A)	A (a compound having 10 or more and less than 20 is denoted as A)	–	–	–	–
